Experimental data: US20230399341A1, “7-PHENYL SUBSTITUTED 2-AMINOQUINAZOLINE INHIBITORS OF HPK1” (MERCK SHARP & DOHME LLC, priority 2020, published 2023)
pIC50: −log10 of the molar value.

Target: T1, Human HPK1, catalytic domain (Homo sapiens, UniProt Q92918)
T1 sequence (Q92918 1-346): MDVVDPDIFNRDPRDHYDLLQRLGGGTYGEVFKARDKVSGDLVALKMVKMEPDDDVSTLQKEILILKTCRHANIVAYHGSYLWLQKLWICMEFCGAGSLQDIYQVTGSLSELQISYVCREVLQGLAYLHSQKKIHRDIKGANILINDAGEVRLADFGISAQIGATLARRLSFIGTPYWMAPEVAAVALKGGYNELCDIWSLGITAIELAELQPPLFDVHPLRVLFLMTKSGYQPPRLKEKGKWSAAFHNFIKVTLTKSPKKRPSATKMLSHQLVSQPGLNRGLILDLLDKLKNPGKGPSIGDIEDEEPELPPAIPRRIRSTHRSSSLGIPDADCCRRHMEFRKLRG
Assay: HPK1-SLP76 TR-FRET Assay
Type: biochemical
Conditions: 75 pM HPK1, ATP 10 uM, SLP76 10 nM, 30 min pre-incubation, 60 min reaction

Compound	pIC50
COc1cc(C(C)S(C)(=O)=O)ccc1Nc1ncc2c(N)c(F)c(-c3cnc4c(c3C)NCCO4)cc2n1 (single isomer, unassigned) [Compound 2-55, (R or S)-6-fluoro-N˜2˜-{2-methoxy-4-[1-(methylsulfonyl)ethyl]phenyl}-7-(8-methyl-2,3-dihydro-1H-pyrido[2,3-b][1,4]oxazin-7-yl)quinazoline-2,5-diamine]	8.79
COc1cc2c(cc1Nc1ncc3c(N)cc(Oc4ccc5c(c4)CCNC5)cc3n1)CN(C)CC2 [Compound 4-9, N2-(6-Methoxy-2-methyl-1,2,3,4-tetrahydroisoquinolin-7-yl)-7-((1,2,3,4-tetrahydroisoquinolin-6-yl)oxy)quinazoline-2,5-diamine]	8.66
C[C@H]1COC(=O)N1c1cc(N)c2cnc(Nc3ccc(CS(C)(=O)=O)cc3)nc2c1 [Compound 3-78, (S)-3-(5-amino-2-((4-((methyl-sulfonyl)methyl)phenyl)amino)-quinazolin-7-yl)-4-methyloxa-zolidin-2-one]	9.77
COc1cc2c(cc1Nc1ncc3ccc(N4CC5(CCNCC5)OC4=O)cc3n1)CN(C)CC2 [Compound 3-5, 3-{2-[(6-methoxy-2-methyl-1,2,3,4-tetrahydroisoquinolin-7-yl)amino]quinazolin-7-yl}-1-oxa-3,8-diazaspiro[4.5]decan-2-one]	6.69
Cc1c(-c2cc3nc(Nc4ccc5c(c4)CN(C)CC5(F)F)ncc3c(N)c2F)cnc2c1NCCO2 [Compound 2-154, N~2~-(4,4-difluoro-2-methyl-1,2,3,4-tetrahydroisoquinolin-7-yl)-6-fluoro-7-(8-methyl-2,3-dihydro-1H-pyrido[2,3-b][1,4]oxazin-7-yl)quinazoline-2,5-diamine]	9.29
COc1cc2c(cc1Nc1ncc3ccc(-c4cncc(CN)c4)cc3n1)CNCC2 [Compound 1-49, 7-[5-(aminomethyl)pyridin-3-yl]-N-(6-methoxy-1,2,3,4-tetrahydroisoquinolin-7-yl)quinazolin-2-amine]	8.49
COc1cc2c(cc1Nc1ncc3ccc(-c4ccc(C(F)(F)C(N)=O)nc4)cc3n1)CN(C)CC2 [Compound 1-12, 2,2-difluoro-2-(5-{2-[(6-methoxy-2-methyl-1,2,3,4-tetrahydroisoquinolin-7-yl)amino]quinazolin-7-yl}pyridin-2-yl)acetamide]	6.47
COc1cc2c(cc1Nc1ncc3ccc(-c4ccccc4C4CC4)cc3n1)CNCC2 [Compound 1-92, 7-(2-cyclopropylphenyl)-N-(6-methoxy-1,2,3,4-tetrahydroisoquinolin-7-yl)quinazolin-2-amine]	7.03
Cc1c(-c2cc3nc(Nc4cc5c(cc4C(N)=O)CCN(C)C5)ncc3c(N)c2F)cnc2c1NCCO2 [Compound 2-87, 7-((5-amino-6-fluoro-7-(8-methyl-2,3-dihydro-1H-pyrido[2,3-b][1,4]oxazin-7-yl)quinazolin-2-yl)amino)-2-methyl-1,2,3,4-tetrahydroisoquinoline-6-carboxamide]	7.00
Cc1c(-c2cc3nc(Nc4ccc([S+](C)[O-])cc4)ncc3c(N)c2F)cnc2c1NCCO2 (stereo not shown) [Compound 2-170, 6-fluoro-7-(8-methyl-2,3-dihydro-1H-pyrido[2,3-b][1,4]oxazin-7-yl)-N~2~- [4-(methylsulfinyl)phenyl] quinazoline-2,5-diamine]	10.41
COc1cc2c(cc1Nc1ncc3ccc(N4CCC[C@H](N5CCOC5=O)C4)cc3n1)CN(C)CC2 [Compound 3-50, 3-[(3S)-1-{2-[(6-methoxy-2-methyl-1,2,3,4-tetrahydroiso-quinolin-7-yl)amino]quinazolin-7-yl}piperidin-3-yl]-1,3-oxazol-idin-2-one]	6.11
Cc1c(-c2cc3nc(Nc4ccc(C5CCN(C)C5=O)cc4)ncc3c(N)c2F)cnc2c1NCCO2 (single isomer, unassigned) [Compound 2-147, (R or S)-3-(4-{[5-amino-6-fluoro-7-(8-methyl-2,3-dihydro-1H-pyrido[2,3-b][1,4]oxazin-7-yl)quinazolin-2-yl]amino}phenyl)-1-methylpyrrolidin-2-one]	10.12
COc1cc2c(cc1Nc1ncc3cc(F)c(-c4cnc5c(c4C)NCCO5)cc3n1)CN(C)CC2 [Compound 1-95, 6-fluoro-N-(6-methoxy-2-methyl-1,2,3,4-tetrahydroisoquinolin-7-yl)-7-(8-methyl-2,3-dihydro-1H-pyrido[2,3-b][1,4]oxazin-7-yl)quinazolin-2-amine]	8.63
COc1cc2c(cc1Nc1ncc3ccc(NC4CCCOC4)cc3n1)CN(C)CC2 (racemic) [Compound 3-69, (S and R)-N-2~-(6-methoxy-2-methyl-1,2,3,4-tetrahydroiso-quinolin-7-yl)-N~7~-(oxan-3-yl)quinazoline-2,7-diamine]	6.33
COc1cc2c(cc1Nc1ncc3ccc(-c4cccc(C(=O)NCCN5CCCC5)c4)cc3n1)CNCC2 [Compound 1-83, 3-{2-[(6-methoxy-1,2,3,4-tetrahydroisoquinolin-7-yl)amino]quinazolin-7-yl}-N-[2-(pyrrolidin-1-yl)ethyl]benzamide]	6.65
COc1cc2c(cc1Nc1ncc3ccc(-c4cccc(C(=O)NC5CC5)c4)cc3n1)CNCC2 [Compound 1-67, N-cyclopropyl-3-{2-[(6-methoxy-1,2,3,4-tetrahydroisoquinolin-7-yl)amino]quinazolin-7-yl}benzamide]	7.47
CNC(=O)C1CCc2cc(Nc3ncc4cc(F)c(-c5cnc6c(c5C)NCCO6)cc4n3)ccc21 (single isomer, unassigned) [Compound 1-118, (R or S)-5-{[6-fluoro-7-(8-methyl-2,3-dihydro-1H-pyrido[2,3-b][1,4]oxazin-7-yl)quinazolin-2-yl]amino}-N-methyl-2,3-dihydro-1H-indene-1-carboxamide]	10.44
Cc1c(-c2cc3nc(Nc4ccc5c(c4)CN(C)C(C)(C)C5)ncc3c(N)c2F)cnc2c1NCCO2 (single isomer, unassigned) [Compound 2-128, 6-fluoro-7-(8-methyl-2,3-dihydro-1H-pyrido[2,3-b][1,4]oxazin-7-yl)-N2-(2,3,3-trimethyl-1,2,3,4-tetrahydroisoquinolin-7-yl)quinazoline-2,5-diamine]	10.47
COc1cc2c(cc1Nc1ncc3ccc(N4C(=O)OCC4(C)C)cc3n1)CN(C)CC2 [Compound 3-6, 3-{2-[(6-methoxy-2-methyl-1,2,3,4-tetrahydroisoquinolin-7-yl)amino]quinazolin-7-yl}-4,4-dimethyl-1,3-oxazolidin-2-one]	7.34
Cc1c(-c2c(F)c(N)c3cnc(Nc4cc5c(cc4F)CCN(C)C5)nc3c2Cl)cnc2c1NCCO2 [Compound 2-107, (+ or −)-8-chloro-6-fluoro-N2-(6-fluoro-2-methyl-1,2,3,4-tetrahydroisoquinolin-7-yl)-7-(8-methyl-2,3-dihydro-1H-pyrido[2,3-b][1,4]oxazin-7-yl)quinazoline-2,5-diamine]	10.06
COc1cc2c(cc1Nc1ncc3ccc(-c4cc(F)ccc4CN)cc3n1)CN(C)CC2 [Compound 1-7, 7-[2-(aminomethyl)-5-fluorophenyl]-N-(6 methoxy-2-methyl-1,2,3,4-tetrahydroisoquinolin-7-yl)quinazolin-2-amine]	6.61
CNC(=O)C(C)c1ccc(Nc2ncc3cc(F)c(-c4cnc5c(c4C)NCCO5)cc3n2)cc1 (single isomer, unassigned) [Compound 1-116, (R or S)-2-(4-{[6-fluoro-7-(8-methyl-2,3-dihydro-1H-pyrido[2,3-b][1,4]oxazin-7-yl)quinazolin-2-yl]amino}phenyl)-N-methylpropanamide]	9.66
COc1cc2c(cc1Nc1ncc3c(N)c(F)c(-c4cnc5c(c4C)NCCO5)c(Cl)c3n1)CN(C)CC2 [Compound 2-90, (+ and −)-8-chloro-6-fluoro-N~2~-(6-methoxy-2-methyl-1,2,3,4-tetrahydroisoquinolin-7-yl)-7-(8-methyl-2,3-dihydro-1H-pyrido[2,3-b][1,4]oxazin-7-yl)quinazoline-2,5-diamine]	10.45
COc1cc2c(cc1Nc1ncc3ccc(-c4cnccc4Cl)cc3n1)CNCC2 [Compound 1-38, 7-(4-chloropyridin-3-yl)-N-(6-methoxy-1,2,3,4-tetrahydroisoquinolin-7-yl)quinazolin-2-amine]	7.75
Cc1c(-c2cc3nc(Nc4ccc(CS(C)(=O)=O)cc4)ncc3c(N)c2F)cnc2c1NCC(C)(C)O2 [Compound 2-165, 6-fluoro-N~2~-{4-[(methylsulfonyl)methyl]phenyl}-7-(3,3,8-trimethyl-2,3-dihydro-1H-pyrido[2,3-b][1,4]oxazin-7-yl)quinazoline-2,5-diamine]	9.99
Cc1c(-c2cc3nc(Nc4ccc(CS(=O)(=O)CC(F)(F)F)cc4)ncc3c(N)c2F)cnc2c1NCCO2 [Compound 2-149, 6-fluoro-7-(8-methyl-2,3-dihydro-1H-pyrido[2,3-b][1,4]oxazin-7-yl)-N~2~- {4-[(2,2,2-trifluoroethanesulfonyl)methyl]phenyl}quinazoline-2,5-diamine]	9.71
Cc1ccc(F)cc1-c1cc2nc(Nc3ccc(CS(C)(=O)=O)cc3)ncc2c(N)c1F [Compound 2-172, 6-fluoro-7-(5-fluoro-2-methylphenyl)-N~2~-{4-[(methylsulfonyl)methyl]phenyl}quinazoline-2,5-diamine]	7.61
CNC(=O)CNc1ccc2cnc(Nc3cc4c(cc3OC)CCN(C)C4)nc2c1 [Compound 3-70, N~2~-{2-[(6-methoxy-2-methyl-1,2,3,4-tetrahydroisoquinolin-7-yl)amino]quinazolin-7-yl}-N-methylglycinamide]	6.41
